Target: AsiA (Enterobacteria phage T4, UniProt P32267)
Conditions: His-tagged σ fragment on Ni2+-NTA beads, imidazole elution
Method: The complementary experiment was done using wild type, untagged AsiA. Instead, a synthetic hexahistidine tag was chemically ligated to the N-terminus of σ568-600 as described herein. AsiA and His-tagged σ fragment were loaded on Ni^2+NTA beads, the beads were washed and eluted with increasing concentrations of imidazole in the buffer.
100 μl reactions contained 15 μl of Ni^2+-NTA agarose (Qiagen), 50-100 pmol σ^70 or σ^70 derivative, 200 pmol AsiAHis, 20 mM Tris-HCl, pH 7.9, 100 mM KCl, 10 mM MgCl2. Reactions were preincubated for 15 min at room temperature, after which the beads were pelleted by brief centrifugation and the supernatant, containing the unbound material was removed. The beads were then washed three times with the same buffer containing 10 mM imidazole, pH 8.0, resuspended in 50 μl of the buffer containing 100 mM imidazole and incubated for additional 15 min at room temperature. The supernatant containing the bound material was then withdrawn. Aliquots of the reactions were then analyzed on 8-25% Phast gels (Pharmacia) and silver stained.

Sequence of AsiA (P32267 whole entry, the tested form may be a part): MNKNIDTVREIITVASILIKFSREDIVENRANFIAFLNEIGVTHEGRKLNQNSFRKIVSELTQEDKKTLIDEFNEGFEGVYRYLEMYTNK

Substance: His6-Cys-[SCH2]-aminocaproate-σ568-600 [His-tagged σ568-600]
- interaction with wild type, untagged AsiA: strong interaction

From patent US6875594B2, “Methods of ligating expressed proteins” (The Rockefeller University, priority 1997, dated 2005)
